Laboratory results from article PMC12259270, “Sensory neuron–expressed FGF13 controls nociceptive signaling in diabetic neuropathy models” (The Journal of Clinical Investigation, 2025).
“And” between values parts separate entries of the source, which are not always exact repeats. Equal values may be shown once. Residues, ends and D or L forms follow the SMILES beside them. *: point of attachment. NHPh = c1ccc(N*)cc1

Tested on: C57BL/6 mice
Experiment: Capsaicin-induced mechanical hypersensitivity (von Frey)
Type: in vivo, mouse
Set-up: LVF Mean / HVF Mean / MECHANICAL LVF / MECHANICAL HVF: unit not given here
Description: FGF13 is a neuronal gene ubiquitously transcribed in DRG neuronal subtypes ([43]–[46]). To investigate neuronal subtype enrichment of the FGF13 transcript, we examined a gene panel including FGF13, SCN9A, and several marker genes in mouse single-cell transcriptomic data (Supplemental Figure 10) ([43]–[46]). […] Critically, putative silent nociceptors marked by somatostatin (SST), and the nicotinic cholinergic receptor α-3 subunit (CHRNA3) contribute to development of inflammatory mechanical hyperalgesia ([47]). […] We next determined if PW164 modulation of the FGF13/Nav1.7 complex could suppress nociceptive behaviors in WT mice. We tested whether intraplantar (i.pl.) injection (5 μL) of PW164 altered hind paw withdrawal in response to low or high intensity von Frey filament (LVF or HVF, respectively) mechanical stimulation (Figure 3A). […] Next, we evaluated PW164’s effect on mechanical and thermal hindpaw sensitivity in capsaicin-induced nociceptive hypersensitivity models. […] Next, we performed in vivo target validation in WT mice that received an intrathecal (i.t.) injection in L5 of AAV2-shFGF13 (6 μL, viral titers 1 × 10^12 vector genomes (vg)/mL); a control group received an equal number of AAV2-shCTRL particles (Figure 3C).
Experiments were performed on 6- to 12-week-old male C57BL/6 mice (The Jackson Laboratory, Bar Harbor, ME) housed in the AAALAC-accredited facility at the University of Texas Medical Branch. Mice were group-housed with up to 5 mice per cage on a 12-to-12-hour light–dark cycle and had access to water and food ad libitum. All protocols were approved by the Institutional Animal Care and Use Committee (IACUC) at the University of Texas Medical Branch and in accordance with the National Institutes of Health (NIH) guidelines.
PW164 and ZL192 were dissolved in DMSO and saline in a ratio of 1:10. 0.1% capsaicin (10% ethanol, 10% Tween-20 in saline; Sigma-Aldrich). All the compounds were injected at the center of the hind paw. The control group received a DMSO-saline mixture. […]
Bupivacaine was prepared from a 1:2 dilution with sterile 0.9% saline and locally injected in the center of the paw at 7 mg/ml.
AAV2 viral particles packaged by the University of North Carolina Gene Therapy Core Facility (viral titer ranging […]
Before intrathecal injections in the lumbar region, mice were maintained in an anesthetizing box with 2% isoflurane to induce unconsciousness. Six microliters of viral vector were gently injected into the CSF through a 30-gauge needle with a Hamilton syringe in the lumbar area between vertebrae L4 and L5 by gently gripping the iliac crest of the mouse and inserting the needle with an angle of 45°. The correct procedure was confirmed by the mouse’s tail reflexiv e flick.
Assessment of mechanical sensitivity
Mechanical sensitivity was assessed using von Frey filaments (VFF 0.1g and 1.0 g force) in mice that were either naïve or received intraplantar (i.p.) injection of capsaicin. VFFs were applied at the injection site (capsaicin or […]

[1] = Zl 0192 .06mg/ml 5ul site 2 i.d(after cap 0.5h ), Male GFP mouse site 1, hour 0
[2] = Zl 0192 .06mg/ml 5ul site 2 i.d(after cap 0.5h ), Male GFP mouse site 1, hour 0.5
[3] = Zl 0192 .06mg/ml 5ul site 2 i.d(after cap 0.5h ), Male GFP mouse site 1, hour 1
[4] = Zl 0192 .06mg/ml 5ul site 2 i.d(after cap 0.5h ), Male GFP mouse site 1, hour 1.5
[5] = Zl 0192 .06mg/ml 5ul site 2 i.d(after cap 0.5h ), Male GFP mouse site 1, hour 2
[6] = Zl 0192 .06mg/ml 5ul site 2 i.d(after cap 0.5h ), Male GFP mouse site 1, hour 3
[7] = Zl 0192 .06mg/ml 5ul site 2 i.d(after cap 0.5h ), Male GFP mouse site 2, hour 0
[8] = Zl 0192 .06mg/ml 5ul site 2 i.d(after cap 0.5h ), Male GFP mouse site 2, hour 0.5
[9] = Zl 0192 .06mg/ml 5ul site 2 i.d(after cap 0.5h ), Male GFP mouse site 2, hour 1
[10] = Zl 0192 .06mg/ml 5ul site 2 i.d(after cap 0.5h ), Male GFP mouse site 2, hour 1.5
[11] = Zl 0192 .06mg/ml 5ul site 2 i.d(after cap 0.5h ), Male GFP mouse site 2, hour 2
[12] = Zl 0192 .06mg/ml 5ul site 2 i.d(after cap 0.5h ), Male GFP mouse site 2, hour 3
[13] = Zl 0192 .06mg/ml 5ul site 2 i.d., Male GFP mouse site 1, hour 0
[14] = Zl 0192 .06mg/ml 5ul site 2 i.d., Male GFP mouse site 1, hour 0.5
[15] = Zl 0192 .06mg/ml 5ul site 2 i.d., Male GFP mouse site 1, hour 1
[16] = Zl 0192 .06mg/ml 5ul site 2 i.d., Male GFP mouse site 1, hour 1.5
[17] = Zl 0192 .06mg/ml 5ul site 2 i.d., Male GFP mouse site 1, hour 2
[18] = Zl 0192 .06mg/ml 5ul site 2 i.d., Male GFP mouse site 1, hour 3
[19] = Zl 0192 .06mg/ml 5ul site 2 i.d., Male GFP mouse site 2, hour 0
[20] = Zl 0192 .06mg/ml 5ul site 2 i.d., Male GFP mouse site 2, hour 0.5
[21] = Zl 0192 .06mg/ml 5ul site 2 i.d., Male GFP mouse site 2, hour 1
[22] = Zl 0192 .06mg/ml 5ul site 2 i.d., Male GFP mouse site 2, hour 1.5
[23] = Zl 0192 .06mg/ml 5ul site 2 i.d., Male GFP mouse site 2, hour 2
[24] = Zl 0192 .06mg/ml 5ul site 2 i.d., Male GFP mouse site 2, hour 3
[25] = Zl 0192 .18mg/ml 5ul site 2 i.d(after cap 0.5h ), Male GFP mouse site 1, hour 0
[26] = Zl 0192 .18mg/ml 5ul site 2 i.d(after cap 0.5h ), Male GFP mouse site 1, hour 0.5
[27] = Zl 0192 .18mg/ml 5ul site 2 i.d(after cap 0.5h ), Male GFP mouse site 1, hour 1
[28] = Zl 0192 .18mg/ml 5ul site 2 i.d(after cap 0.5h ), Male GFP mouse site 1, hour 1.5
[29] = Zl 0192 .18mg/ml 5ul site 2 i.d(after cap 0.5h ), Male GFP mouse site 1, hour 2
[30] = Zl 0192 .18mg/ml 5ul site 2 i.d(after cap 0.5h ), Male GFP mouse site 1, hour 3
[31] = Zl 0192 .18mg/ml 5ul site 2 i.d(after cap 0.5h ), Male GFP mouse site 2, hour 0
[32] = Zl 0192 .18mg/ml 5ul site 2 i.d(after cap 0.5h ), Male GFP mouse site 2, hour 0.5
[33] = Zl 0192 .18mg/ml 5ul site 2 i.d(after cap 0.5h ), Male GFP mouse site 2, hour 1
[34] = Zl 0192 .18mg/ml 5ul site 2 i.d(after cap 0.5h ), Male GFP mouse site 2, hour 1.5
[35] = Zl 0192 .18mg/ml 5ul site 2 i.d(after cap 0.5h ), Male GFP mouse site 2, hour 2
[36] = Zl 0192 .18mg/ml 5ul site 2 i.d(after cap 0.5h ), Male GFP mouse site 2, hour 3
[37] = Zl 0192 .18mg/ml 5ul site 2 i.d., Male GFP mouse site 1, hour 0
[38] = Zl 0192 .18mg/ml 5ul site 2 i.d., Male GFP mouse site 1, hour 0.5
[39] = Zl 0192 .18mg/ml 5ul site 2 i.d., Male GFP mouse site 1, hour 1
[40] = Zl 0192 .18mg/ml 5ul site 2 i.d., Male GFP mouse site 1, hour 1.5
[41] = Zl 0192 .18mg/ml 5ul site 2 i.d., Male GFP mouse site 1, hour 2
[42] = Zl 0192 .18mg/ml 5ul site 2 i.d., Male GFP mouse site 1, hour 3
[43] = Zl 0192 .18mg/ml 5ul site 2 i.d., Male GFP mouse site 2, hour 0
[44] = Zl 0192 .18mg/ml 5ul site 2 i.d., Male GFP mouse site 2, hour 0.5
[45] = Zl 0192 .18mg/ml 5ul site 2 i.d., Male GFP mouse site 2, hour 1
[46] = Zl 0192 .18mg/ml 5ul site 2 i.d., Male GFP mouse site 2, hour 1.5
[47] = Zl 0192 .18mg/ml 5ul site 2 i.d., Male GFP mouse site 2, hour 2
[48] = Zl 0192 .18mg/ml 5ul site 2 i.d., Male GFP mouse site 2, hour 3

SMILES: CC(=O)N[C@@H](Cc1ccccc1)C(=O)N[C@@H](CC(C)C)C(=O)N1CCC[C@H]1C(=O)N[C@@H](CCCCN)C(=O)Nc1ccccc1 [Zl 0192] (Ac-FLPK-NHPh)
- MECHANICAL HVF [1]: 50
- MECHANICAL LVF [1]: 0
- MECHANICAL HVF [2]: 100
- MECHANICAL LVF [2]: 70
- MECHANICAL HVF [3]: 100
- MECHANICAL LVF [3]: 70
- MECHANICAL HVF [4]: 100
- MECHANICAL LVF [4]: 80
- MECHANICAL HVF [5]: 100
- MECHANICAL LVF [5]: 80 and 70
- MECHANICAL HVF [6]: 100
- MECHANICAL LVF [6]: 80 and 70
- MECHANICAL HVF [7]: 50
- MECHANICAL LVF [7]: 0
- MECHANICAL HVF [8]: 100
- MECHANICAL LVF [8]: 50 and 60
- MECHANICAL HVF [9]: 100
- MECHANICAL LVF [9]: 60
- MECHANICAL HVF [10]: 100
- MECHANICAL LVF [10]: 60 and 70
- MECHANICAL HVF [11]: 100
- MECHANICAL LVF [11]: 70 and 60
- MECHANICAL HVF [12]: 100
- MECHANICAL LVF [12]: 30 and 40
- MECHANICAL HVF [13]: 50
- MECHANICAL LVF [13]: 0
- MECHANICAL HVF [14]: 100
- MECHANICAL LVF [14]: 40 and 70
- MECHANICAL HVF [15]: 100
- MECHANICAL LVF [15]: 70 and 80
- MECHANICAL HVF [16]: 100
- MECHANICAL LVF [16]: 80 and 70
- MECHANICAL HVF [17]: 80 and 90
- MECHANICAL LVF [17]: 50
- MECHANICAL HVF [18]: 80
- MECHANICAL LVF [18]: 20 and 30
- MECHANICAL HVF [19]: 50
- MECHANICAL LVF [19]: 0
- MECHANICAL HVF [20]: 100
- MECHANICAL LVF [20]: 40 and 60
- MECHANICAL HVF [21]: 100
- MECHANICAL LVF [21]: 70
- MECHANICAL HVF [22]: 90 and 70
- MECHANICAL LVF [22]: 60 and 50
- MECHANICAL HVF [23]: 80 and 70
- MECHANICAL LVF [23]: 30 and 40
- MECHANICAL HVF [24]: 80 and 50
- MECHANICAL LVF [24]: 20 and 10
- MECHANICAL HVF [25]: 60 and 50
- MECHANICAL LVF [25]: 0
- MECHANICAL HVF [26]: 100
- MECHANICAL LVF [26]: 70 and 60
- MECHANICAL HVF [27]: 100
- MECHANICAL LVF [27]: 70 and 60
- MECHANICAL HVF [28]: 100
- MECHANICAL LVF [28]: 80 and 90
- MECHANICAL HVF [29]: 100
- MECHANICAL LVF [29]: 80 and 90
- MECHANICAL HVF [30]: 100
- MECHANICAL LVF [30]: 90 and 80
- MECHANICAL HVF [31]: 50
- MECHANICAL LVF [31]: 0
- MECHANICAL HVF [32]: 100
- MECHANICAL LVF [32]: 60 and 70
- MECHANICAL HVF [33]: 100
- MECHANICAL LVF [33]: 60
- MECHANICAL HVF [34]: 100
- MECHANICAL LVF [34]: 60 and 70
- MECHANICAL HVF [35]: 100
- MECHANICAL LVF [35]: 70 and 60
- MECHANICAL HVF [36]: 100
- MECHANICAL LVF [36]: 70
- MECHANICAL HVF [37]: 50
- MECHANICAL LVF [37]: 0
- MECHANICAL HVF [38]: 100
- MECHANICAL LVF [38]: 40 and 50
- MECHANICAL HVF [39]: 100
- MECHANICAL LVF [39]: 80
- MECHANICAL HVF [40]: 100
- MECHANICAL LVF [40]: 70
- MECHANICAL HVF [41]: 100
- MECHANICAL LVF [41]: 70 and 60
- MECHANICAL HVF [42]: 100
- MECHANICAL LVF [42]: 60
- MECHANICAL HVF [43]: 50
- MECHANICAL LVF [43]: 0
- MECHANICAL HVF [44]: 100
- MECHANICAL LVF [44]: 60 and 50
- MECHANICAL HVF [45]: 100
- MECHANICAL LVF [45]: 70 and 60
- MECHANICAL HVF [46]: 100
- MECHANICAL LVF [46]: 60
- MECHANICAL HVF [47]: 100
- MECHANICAL LVF [47]: 70
- MECHANICAL HVF [48]: 100
- MECHANICAL LVF [48]: 50
